Data taken from patent publication US20190321493A1, “MATERIALS AND METHODS FOR TREATING REGIONAL PAIN” (priority 2016, published 2019).

How the values were obtained:
[1] = test system: nociceptive fibers in the dorsal horn of the spinal cord; experiment: Periganglionic (epidural) injection of RTX, immunohistochemistry of spinal cord dorsal horn; assay type: in vivo, swine; conditions: FIG. 3B vs 3A
[2] = test system: nociceptive neurons of the dorsal root ganglion (DRG); experiment: MRI-guided intraganglionic injection of RTX (RTXcap) with gadoteridol into swine DRG, substance P immunohistochemistry; assay type: in vivo
Source text: FIGS. 1A-1D are fluorescent immunohistochemistry (IHC) images. […] Nociceptive fibers in all panels are visualized using the biomarker substance P (sP).
FIGS. 2A-2C are fluorescent IHC images of a DRG. […] The outcomes in FIG. 2B and FIG. 2C were predicted from intraprocedural imaging performed during RTX delivery (noted as a success (B) and failure (C) to achieve the intended contrast media dispersion).
Domestic swine were chosen because the porcine lumbar spinal column resembles the human lumbosacral anatomy. Swine were sedated with Telazol and Xylazine, intubated and kept under deep isoflurane inhalation anesthesia for the duration of the procedure titrated to effect. Swine were placed in an MRI scanner (GE 3T, GE Healthcare). Overview MRI imaging was obtained of the lumbosacral spine. DRG at the L4, L5, S1, and S2 level were outlined (FIG. 1A).
The guide needle was passed through the skin lateral to the midline and incrementally advanced ventromedially toward the DRG intraprocedural MRI imaging monitored advancement of the needle, and any deviations from the optimal trajectory were corrected. When the needle tip was visualized directly adjacent to the dorsal aspect of the DRG, the stylet of the guide needle was withdrawn. The stepped stylet was then inserted through the guide needle. The length of the stepped stylet exceeded the length of the guide needle and therefore only the stepped tip of the stylet but not the Quincke tip of the guide needle penetrated the DRG parenchyma. The stepped stylet was then withdrawn and replaced by the stepped needle. The prior insertion of the stepped stylet prevented clogging of the narrow needle tip. RTX 5 μg and gadoteridol 1% V/V was injected in a volume of 50 μl per DRG over a period of 5 minutes (RTX was solubilized in water with sulfobutyl ether β-cyclodextrin, designated as RTXcap). MRI imaging verified when the injection was successful and when the injection needed to be repeated (FIG. 4). Pigs were sacrificed 5 weeks post injection and the tissues harvested for histopathological analysis.

[3] = Drug distribution in DRG after convection enhanced delivery of DAPI; assay type: in vivo, swine; conditions: FIG. 5
Source text: FIGS. 5A-5C illustrate drug distribution in swine DRG. […] is a schematic of convection enhanced delivery (CED) needle placement in a DRG. FIG. 5B contains an image of a control DRG. FIG. 5C contains an image of a 4′,6-diamidino-2-phenylindole (DAPI) injected DRG.
An incision was made in the overlying skin at an anatomical level affected by pain in a patient. The subcutaneous fat and musculature were incised and reflected, exposing the bony lamina. Using appropriate instruments, a portion of the lamina was removed to expose the neural elements. The meningeal sleeve surrounding the DRG and spinal nerve was surgically exposed by microdissection of bone and tissue, which may require extending the laminectomy dissection, using standard techniques such as blunt or sharp dissection with meticulous hemostasis. Thereby the DRG was exposed and grossly visualized. A convection enhanced delivery needle was placed into the exposed DRG. RTXcap was injected in a preparation that also contains a contrast agent (e.g., in this case DAPI) allowing direct visualization of analgesic agent injection by eye sight with or without a surgical loupe or surgical operating microscope.

C=C(C)[C@]12C[C@@H](C)[C@@]34O[C@](Cc5ccccc5)(O[C@@H]1[C@@H]3C=C(COC(=O)Cc1ccc(O)c(OC)c1)C[C@]1(O)C(=O)C(C)=C[C@@H]41)O2 [RTX, resiniferatoxin]
nociceptive fibers in the dorsal horn of the spinal cord [1]: elimination of nociceptive fibers | neurolysis of the targeted tissue ([2]; RTX 5 μg + gadoteridol 1% V/V, 50 μl per DRG, tissues 5 weeks post injection): can result in neurolysis of the targeted tissue | nociceptive neurons (sP fluorescence) in DRG ([2]; after failed image-guided injection, FIG. 2C): normal numbers of nociceptive neurons | nociceptive neurons (sP fluorescence) in DRG ([2]; after successful MRI-guided injection, FIG. 2B): elimination of most nociceptive neurons | nociceptive fibers (substance P) in the dorsal horn of the spinal cord ([2]; intraganglionic injection, RTX solubilized in water with sulfobutyl ether β-cyclodextrin, FIG. 1B vs 1A): elimination of nociceptive fibers | nociceptive fibers (substance P) in the dorsal root ganglion ([2]; intraganglionic injection, RTX solubilized in water with sulfobutyl ether β-cyclodextrin, FIG. 1D vs 1C): elimination of nociceptive fibers

N=C(N)c1ccc(-c2cc3ccc(C(=N)N)cc3[nH]2)cc1 [DAPI, 4′,6-diamidino-2-phenylindole]
distribution in DRG [3]: good distribution throughout the DRG
